Experimental data as given in PMC10630888, “Nuclear ERK1/2 signaling potentiation enhances neuroprotection and cognition via Importinα1/KPNA2” (EMBO Molecular Medicine, 2023).

Key:
[1] = system: corticostriatal synapses on dSPNs; test: Patch clamp, HFS-LTD at corticostriatal synapses on dSPNs; assay type: cell-based, mouse; settings: peptide 50 μM intracellularly, mean, RB5 n = 7 cells, Scr n = 5 cells
Method: Brain slices containing both the striatum and the cortex were prepared as described (Trusel et al, [2015]). Mice were anesthetized by isoflurane and decapitated, and their brains were rapidly transferred to ice‐cold dissecting aCSF containing (in mM): 110 Choline‐Cl, 2.5 KCl, 1.25 NaH2PO4, 7 MgCl26H2O, 0.5 CaCl2, 25 NaHCO3, 25 D‐glucose, 11.6 ascorbic acid, saturated with 95% O2 and 5% CO2. Horizontal corticostriatal slices (270 μm thick; patch‐clamp recordings) were cut in the dissecting aCSF using a Vibratome 1000S slicer (Leica, Italy), then transferred to normal aCSF containing (in mM): 115 NaCl, 3.5 KCl, 1.2 NaH2PO4, 1.3 MgCl26H2O, 2 CaCl2, 25 NaHCO3, and 25 D‐glucose and aerated with 95% O2 and 5% CO2. Following 20 min of incubation at 32°C, slices were kept at RT. During experiments, slices were continuously perfused with aCFS at a rate of 2 ml/min at 28°C. […]
SPNs were clamped at a holding membrane potential of −80 mV. […] Series resistance (range 15–25 MW) was monitored at regular intervals throughout the recording and presented minimal variations (≤20%) in the analyzed cells. […]
The occurrence and magnitude of synaptic plasticity was evaluated by comparing the normalized EPSP amplitudes from the last 5 min of baseline recordings with the corresponding values at 20–30 min after HFS (HFS‐LTD). […]

[2] = system: S6 (Ser235/236) phosphorylation; test: Striatal pS6 (Ser235/236) immunofluorescence 1 h after single injection; assay type: in vivo, mouse; settings: single injection 20 mg/kg i.p., individual mice
Method: Immunofluorescence was performed as described in Papale et al ([2016]). Briefly, 1 h after blocking in 5% normal goat serum, slices were incubated overnight at 4°C with the following primary antibodies: anti‐phospho (Ser10)‐acetylated (Lys14) histone H3 (1:1,000, Millipore), anti‐phospho‐S6 ribosomal protein (Ser235/236) (1:200, Cell Signaling Technology) anti‐phospho‐S6 ribosomal protein (Ser240/244) (1:200, Cell Signaling), cleaved caspase‐3 (1:200, Cell Signaling Technology), anti‐mutant Huntingtin (1:100, Developmental Studies Hybridoma Bank, University of Iowa, #MW8), and NeuN (1:1,000, Millipore). Corresponding secondary antibodies (Alexa Fluor 546 conjugated anti‐mouse (1:200, Thermo Fisher Scientific), Alexa Fluor 488 conjugated anti‐rabbit (1:500, Thermo Fisher Scientific) and Pacific Blue goat anti‐mouse (1:200, Thermo Fisher Scientific) were incubated at room temperature for 1 h. Sections stained for mutant Huntingtin were incubated with DAPI for 20 min. Sections were subsequently mounted with fluorescent mounting medium (DAKO). Single and double‐labeled images ([…]) were obtained at 40× magnification from the striatum using a laser scanning confocal microscope (Leica SP2) equipped with the corresponding lasers and appropriate filter sets to avoid the crosstalk between the fluorochromes.
(§1) In ex‐vivo and in‐vivo immunofluorescence experiments, the number of p‐S6 or p‐AcH3 immunoreactive neurons among NeuN‐positive neurons was counted in 2–3 consecutive striatal sections per mouse in four fields per section. Caspase 3‐positive cells were quantified among NeuN‐positive neurons in each slide and expressed as percentage (ratio between caspase‐3‐positive cells and total NeuN‐positive neurons) for each field acquired through the slide. The number of cells showing mutant Huntingtin inclusions were expressed as a percentage of mutant Huntingtin‐positive cells among DAPI‐positive cells.

mutant huntingtin (mHtt) = test: Mutant huntingtin inclusions in striatum of zQ175 females after RB5; assay type: in vivo, mouse; settings: RB5 for 9 days
Method: Immunofluorescence was performed as described in Papale et al ([2016]). Briefly, 1 h after blocking in 5% normal goat serum, slices were incubated overnight at 4°C with the following primary antibodies: anti‐phospho (Ser10)‐acetylated (Lys14) histone H3 (1:1,000, Millipore), anti‐phospho‐S6 ribosomal protein (Ser235/236) (1:200, Cell Signaling Technology) anti‐phospho‐S6 ribosomal protein (Ser240/244) (1:200, Cell Signaling), cleaved caspase‐3 (1:200, Cell Signaling Technology), anti‐mutant Huntingtin (1:100, Developmental Studies Hybridoma Bank, University of Iowa, #MW8), and NeuN (1:1,000, Millipore). […]
as §1, with “cells. […]” for “cells.”

Substance	Normalized EPSP amplitude after HFS (20–30 min) versus baseline ([1]; listed as Scr)	Normalized EPSP amplitude after HFS (20–30 min) versus baseline ([1]; listed as control peptide)	pS6 (Ser235/236) positive neurons in striatum ([2]; ERK1+/+ (WT) mice)	pS6 (Ser235/236) positive neurons in striatum ([2]; ERK1-/- mice)	pS6 (Ser235/236) positive neurons in striatum ([2]; 1 h)	mHtt aggregation in striatum (mutant huntingtin (mHtt))
SCR: ineffective Scramble version of RB5 containing a TAT sequence (GRKKRRQRRRPPRVGPGVPEGVGVAVFGVKEPGQTGDVGPVGE) [reference compound]	76.7653	had no effect on plasticity induction	–	–	–	–
GRKKRRQRRRPPQGGGGGEPRRTEGVGPGVPGEVEMVKGQPFDV [RB5, six D-amino acids, acetylated N-terminus]	–	–	comparable in both genotypes	comparable in both genotypes	slightly reduced	insufficient to attenuate the mHtt aggregation
